How the values were obtained:
mouse [1] = settings: Other (NonGuideline or Guideline Not Listed), cd1, Oral, Gavage/Intubation, dose end: 2 year, group: cannot be grouped
mouse [2] = settings: Multigenerational reproductive toxicity study, cd1, Oral, Gavage/Intubation, dose end: 1 generation
mouse [3] = settings: Multigenerational reproductive toxicity study, cd1, Oral, Gavage/Intubation, dose end: 2 generation
mouse [4] = settings: Subchronic oral toxicity in rodents, b6c3f1, Gavage/Intubation, dose end: 14 week, group: systemic
mouse [5] = settings: Subchronic oral toxicity in rodents, b6c3f1, Gavage/Intubation, dose end: 94 day, group: systemic, systemic / hematology / erythrocyte (rbc) count differential / erythrocyte (rbc) + systemic / hematology / hematocrit (hct) / hematocrit (…
mouse [6] = settings: Prenatal developmental toxicity study, swiss albino, Oral, Gavage/Intubation, dose end: 15 GD
mouse [7] = settings: Prenatal developmental toxicity study, cd1, Oral, Gavage/Intubation, dose end: 16 GD, group: developmental
mouse [8] = settings: Carcinogenicity, b6c3f1, Oral, Gavage/Intubation, dose end: 2 year, group: systemic
rat [9] = settings: Carcinogenicity, fischer, Oral, Gavage/Intubation, dose end: 103 week, group: systemic
mouse [10] = settings: Carcinogenicity; b6c3f1; Oral; Gavage/Intubation; dose end: 103 week; group: systemic; systemic / pathology microscopic / kidney / inflammation + systemic / pathology microscopic / liver / cytomegaly + systemic / pathology …
mouse [11] = settings: Subchronic oral toxicity in rodents, b6c3f1, Gavage/Intubation, dose end: 13 week, group: systemic
rat [12] = settings: Subchronic oral toxicity in rodents, fischer, Gavage/Intubation, dose end: 13 week, group: systemic, systemic / in life observation / clinical signs / lethargy + systemic / in life observation / mortality / mortality
mouse [13] = settings: Sub-acute repeat dose toxicity, b6c3f1, Oral, Gavage/Intubation, dose end: 16 day, group: systemic
rat [14] = settings: Sub-acute repeat dose toxicity, fischer, Oral, Gavage/Intubation, dose end: 16 day, group: systemic
[15] = reproductive / reproductive performance / fertility / fertility + reproductive / offspring survival early / litter size / litter size + …
[16] = group: parental, systemic / hematology / leukocyte (wbc) count differential / leukocyte (wbc) + systemic / hematology / mean corpuscular (cell) volume (mcv…
[17] = group: parental, systemic / hematology / mean corpuscular (cell) volume (mcv) / mean corpuscular (cell) volume (mcv) + systemic / hematology / mean …
[18] = group: reproductive, reproductive / reproductive performance / pregnancy / pregnancy + reproductive / reproductive performance / resorptions / resorptions + …
[19] = group: offspring, systemic / in life observation / body weight / offspring (pup) weight
[20] = group: parental, systemic / in life observation / body weight / body weight + systemic / in life observation / body weight / dam weight + systemic / …
[21] = group: parental, systemic / in life observation / body weight / body weight + systemic / pathology gross / sperm measure / sperm morphology + systemic / …
[22] = group: reproductive, reproductive / offspring survival early / live fetuses / live fetuses
[23] = group: reproductive, reproductive / reproductive performance / reproductive performance other / NOS + reproductive / reproductive performance / gestational …
[24] = systemic / hematology / erythrocyte (rbc) count differential / erythrocyte (rbc) + systemic / hematology / hematocrit (hct) / hematocrit (…
[25] = group: developmental, systemic / in life observation / body weight / fetal weight
[26] = group: maternal, systemic / in life observation / food consumption / food consumption
[27] = developmental / developmental malformation / bone / supernumerary + systemic / in life observation / body weight / fetal weight
[28] = systemic / in life observation / body weight / fetal weight
[29] = systemic / hematology / erythrocyte (rbc) count differential / erythrocyte (rbc) + systemic / hematology / mean corpuscular (cell) volume (…
[30] = systemic / pathology microscopic / kidney / hyperplasia + systemic / pathology microscopic / kidney / mineralization
[31] = systemic / pathology microscopic / kidney / hyperplasia + systemic / pathology microscopic / kidney / mineralization + systemic / pathology …
[32] = systemic / in life observation / mortality / mortality
[33] = systemic / in life observation / mortality / mortality + systemic / in life observation / body weight / body weight
[34] = systemic / in life observation / body weight / body weight
[35] = systemic / in life observation / body weight / body weight + systemic / in life observation / clinical signs / abnormal movements + systemic…
[36] = systemic / in life observation / clinical signs / lethargy

Structure (SMILES): Cc1cn([C@H]2C[C@H](N=[N+]=[N-])[C@@H](CO)O2)c(=O)[nH]c1=O [3'-Azido-3'-deoxythymidine]
- NEL (mouse [1]; reproductive / reproductive performance / fertility / fertility): 100 mg/kg/day
- LEL (mouse [1]; [15]): 200 mg/kg/day
- LOAEL (mouse [1]; [15]): > 300 mg/kg/day
- NOAEL (mouse [1]; [15]): ≥ 300 mg/kg/day
- LOAEL (mouse [2]; [16]): > 400 mg/kg/day
- NOAEL (mouse [2]; [16]): ≥ 400 mg/kg/day
- LEL (mouse [2]; [17]): 100 mg/kg/day
- NEL (mouse [2]; [17]): < 100 mg/kg/day
- LEL (mouse [2]; group: reproductive, reproductive / reproductive performance / pregnancy / pregnancy): 200 mg/kg/day
- NEL (mouse [2]; group: reproductive, reproductive / reproductive performance / pregnancy / pregnancy + reproductive / reproductive performance / resorptions / resorptions): 100 mg/kg/day
- LOAEL (mouse [2]; [18]): > 400 mg/kg/day
- NOAEL (mouse [2]; [18]): ≥ 400 mg/kg/day
- LEL (mouse [3]; [19]): 200 mg/kg/day
- LOAEL (mouse [3]; [19]): > 200 mg/kg/day
- NEL (mouse [3]; [19]): 100 mg/kg/day
- NOAEL (mouse [3]; [19]): ≥ 200 mg/kg/day
- LOAEL (mouse [3]; [20]): > 200 mg/kg/day
- NOAEL (mouse [3]; [20]): ≥ 200 mg/kg/day
- LEL (mouse [3]; [21]): 50 mg/kg/day
- NEL (mouse [3]; [21]): < 50 mg/kg/day
- LEL (mouse [3]; [22]): 50 mg/kg/day
- NEL (mouse [3]; [22]): < 50 mg/kg/day
- LOAEL (mouse [3]; [23]): > 200 mg/kg/day
- NOAEL (mouse [3]; [23]): ≥ 200 mg/kg/day
- LEL (mouse [4]; [24]): 50 mg/kg/day
- NEL (mouse [4]; [24]): < 50 mg/kg/day
- LOAEL (mouse [4]; systemic / in life observation / body weight / body weight gain + systemic / pathology microscopic / bone marrow / atrophy): 800 mg/kg/day
- NOAEL (mouse [4]; systemic / in life observation / body weight / body weight gain + systemic / pathology microscopic / bone marrow / atrophy + systemic / …): 200 mg/kg/day
- LEL (mouse [5]): 100 mg/kg/day
- LOAEL (mouse [5]): > 400 mg/kg/day
- NEL (mouse [5]): < 100 mg/kg/day
- NOAEL (mouse [5]): ≥ 400 mg/kg/day
- LEL (mouse [6]; [25]): 100 mg/kg/day
- LOAEL (mouse [6]; [25]): > 400 mg/kg/day
- NEL (mouse [6]; [25]): < 100 mg/kg/day
- NOAEL (mouse [6]; [25]): ≥ 400 mg/kg/day
- LEL (mouse [6]; [26]): 400 mg/kg/day
- LOAEL (mouse [6]; [26]): > 400 mg/kg/day
- NEL (mouse [6]; [26]): 200 mg/kg/day
- NOAEL (mouse [6]; [26]): ≥ 400 mg/kg/day
- LOAEL (mouse [7]; [27]): > 400 mg/kg/day
- NOAEL (mouse [7]; [27]): ≥ 400 mg/kg/day
- LEL (mouse [7]; [28]): 100 mg/kg/day
- NEL (mouse [7]; [28]): < 100 mg/kg/day
- LEL (mouse [8]; [29]): 30 mg/kg/day
- NEL (mouse [8]; [29]): < 30 mg/kg/day
- LOAEL (mouse [8]; systemic / pathology microscopic / vagina / hyperplasia): 120 mg/kg/day
- NOAEL (mouse [8]; systemic / pathology microscopic / vagina / hyperplasia + systemic / pathology microscopic / liver / adenoma/carcinoma combined + systemic…): 60 mg/kg/day

Structure (SMILES): CC1=CC(=O)CC(C)(C)C1 [Isophorone]
- LOAEL (rat [9]; [30]): 250 mg/kg/day
- NOAEL (rat [9]; [30]): < 250 mg/kg/day
- LEL (rat [9]; [31]): 250 mg/kg/day
- NEL (rat [9]; [31]): < 250 mg/kg/day
- LEL (mouse [10]): 250 mg/kg/day
- LOAEL (mouse [10]): 250 mg/kg/day
- NEL (mouse [10]): < 250 mg/kg/day
- NOAEL (mouse [10]): < 250 mg/kg/day
- LEL (mouse [11]; [32]): 1000 mg/kg/day
- NEL (mouse [11]; [32]): 500 mg/kg/day
- LOAEL (mouse [11]; [33]): > 1000 mg/kg/day
- NOAEL (mouse [11]; [33]): ≥ 1000 mg/kg/day
- LEL (rat [12]): 1000 mg/kg/day
- LOAEL (rat [12]): > 1000 mg/kg/day
- NEL (rat [12]): 500 mg/kg/day
- NOAEL (rat [12]): ≥ 1000 mg/kg/day
- LEL (mouse [13]; [34]): 250 mg/kg/day
- LOAEL (mouse [13]; [34]): 250 mg/kg/day
- NEL (mouse [13]; [35]): 125 mg/kg/day
- NOAEL (mouse [13]; [35]): 125 mg/kg/day
- LOAEL (rat [14]; [34]): 1000 mg/kg/day
- LEL (rat [14]; [36]): 125 mg/kg/day
- NEL (rat [14]; [36]): < 125 mg/kg/day
- NOAEL (rat [14]; systemic / in life observation / clinical signs / lethargy + systemic / in life observation / body weight / body weight + systemic / in life…): 500 mg/kg/day
